Test [1] concerns the target HLA A*3001 (Homo sapiens, UniProt P04439, D140H/D185E/E176W/F33S/G80R/H175R/K168Q/R138E/R41S). The test can be described thus: biochemical. The test is classed as binding.
Test [2] concerns the target HLA A*3201 (Homo sapiens, UniProt P04439, A270S/D101S/D185E/E176V/E277Q/F133L/G103R/G107R/G231S/H175R/I121M/I218V/I322F/K168Q/L105A/L300P/L318F/M331R/P208A/P217A/Q94H/R106L/R138Q/S129P/T104I/T323A/T345S/V100E/V321M/V358M). The test can be described thus: biochemical. The test is classed as binding.
Test [3] deals with HLA A*6802 (Homo sapiens, UniProt P04439, A269V/D140Y/D185E/E176V/E277Q/E87N/F33Y/G231S/I121R/I166T/I218V/L180W/L300P/L318F/N151K/P208A/P217A/Q86R/R138H/R169H/S129P/T345S/V36M). The test is classed as binding.
Test [4] has as its target HLA B*0702 (Homo sapiens, UniProt P01889). The class given is binding. To be noted: positional scanning combinatorial 9-mer library; normalized to 1.0 for the best residue at each position.
Test [5] addresses HLA B*0801 (Homo sapiens, UniProt P01889, A93T/A95T/D138N/E176V/E187T/K202T/Q94N/R180D/S35A/V36M/Y33D/Y91F). The test can be described thus: biochemical. The class given is binding.
Test [6] addresses HLA B*1501 (Homo sapiens, UniProt P01889, A329T/A93T/A95T/C349S/D201E/D98Y/E187L/E204Q/E69M/E70A/K202T/N87E/Q94N/R155S/R180W/S121R/S35A/S48A/V306I/V36M/Y140S/Y91S). The test is described as follows: biochemical. The test is classed as binding.
Test [7] addresses HLA B*1503 (Homo sapiens, UniProt P01889, A329T/A93T/A95T/C349S/D201E/D98Y/E187L/E204Q/K202T/N87E/Q94N/R155S/R180L/S121R/S35A/V306I/V36M/Y140S/Y91S). The test can be described thus: biochemical. The class given is binding.
The target in test [8] is HLA B*2705 (Homo sapiens, UniProt P01889, D138H/D201E/E176V/E204Q/G107R/H137Y/K202T/N104T/N87E/Q56L/Q94K/R106L/R155S/R180L/S101D/S121N/S48T/Y140D/Y33H/Y91C). The test is classed as binding. To be noted: positional scanning combinatorial 9-mer library; normalized to 1.0 for the best residue at each position.
Test [9] deals with HLA B*3501 (Homo sapiens, UniProt P01889, A329T/A93T/A95T/C349S/D201E/D98Y/E176V/E187L/E204Q/E69T/I218V/K202T/L119I/Q94N/R155S/R180L/S121R/S35A/S48A/T118I/V127L/V306I/V36M/Y140S/Y91F). The class given is binding.
In test [10] the target is HLA B*5101 (Homo sapiens, UniProt P01889, A329T/A93T/A95T/C349S/D138N/D201E/D98Y/E187L/E204Q/E69T/G107R/I218V/K202T/L105A/L119W/N104I/Q94N/R106L/R155S/R180L/S101N/S121T/S35A/S48A/V306I/V36M/Y195H/Y91F). The class given is binding.
The target of test [11] is HLA B*5301 (Homo sapiens, UniProt P01889, A329T/A93T/A95T/C349S/D201E/D98Y/E176V/E187L/E204Q/E69T/G107R/I218V/K202T/L105A/L119I/N104I/Q94N/R106L/R155S/R180L/S101N/S121R/S35A/S48A/T118I/V127L/V306I/V36M/Y140S/Y91F). The test is classed as binding.
The target of test [12] is HLA B*5401 (Homo sapiens, UniProt P01889, A329T/C349S/D138N/D201E/E176V/E187T/E204Q/E69G/I76V/K202T/L119W/R155S/R180L/S121T/S35A/S48A/V127L/V306I/V36M/Y140L). The class given is binding.
The target of test [13] is HLA B*5801 (Homo sapiens, UniProt P01889, A329T/C349S/D201E/D98Y/E176V/E187L/E204Q/E69T/G107R/I218V/I90N/K202T/L105A/L119I/N104I/N87E/Q89R/Q94S/R106L/R155S/R180L/R86G/S101N/S121R/S35A/S48A/T118I/V127L/V306I/V36M/Y140S/Y91M). The class given is binding.
Test [14] addresses HLA B*5802 (Homo sapiens, UniProt P01889, A329T/C349S/D201E/D98Y/E176V/E187L/E204Q/E69T/G107R/I218V/I90N/K202T/L105A/N104I/N87E/Q89R/Q94S/R106L/R155S/R180L/R86G/S101N/S121W/S35A/S48A/V127L/V306I/V36M/Y140S/Y91M). The class given is binding.
For test [15], the target named is H-2 D^b (Mus musculus, UniProt P01899). The test is classed as binding.
Test [16] deals with H-2 D^d (Mus musculus, UniProt P01900). The test is classed as binding.
Test [17] has as its target H-2 K^k (Mus musculus, UniProt P04223). The class given is binding.
Test [18] deals with HLA A*0201 (Homo sapiens, UniProt P04439, D140Y/D185E/D98H/E176V/E277Q/G131W/G231S/I119V/I121R/I166T/I218V/L300P/L318F/N151K/N90K/P208A/P217A/Q86G/Q94H/R138H/R169H/T345S). To be noted: positional scanning combinatorial 9-mer library; normalized to 1.0 for the best residue at each position.

Sequence of H-2 K^k (P01887 21-119): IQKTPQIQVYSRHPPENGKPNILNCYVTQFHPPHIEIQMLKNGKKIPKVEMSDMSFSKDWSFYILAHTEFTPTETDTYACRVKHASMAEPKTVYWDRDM
Sequence of H-2 K^k (P04223 22-369): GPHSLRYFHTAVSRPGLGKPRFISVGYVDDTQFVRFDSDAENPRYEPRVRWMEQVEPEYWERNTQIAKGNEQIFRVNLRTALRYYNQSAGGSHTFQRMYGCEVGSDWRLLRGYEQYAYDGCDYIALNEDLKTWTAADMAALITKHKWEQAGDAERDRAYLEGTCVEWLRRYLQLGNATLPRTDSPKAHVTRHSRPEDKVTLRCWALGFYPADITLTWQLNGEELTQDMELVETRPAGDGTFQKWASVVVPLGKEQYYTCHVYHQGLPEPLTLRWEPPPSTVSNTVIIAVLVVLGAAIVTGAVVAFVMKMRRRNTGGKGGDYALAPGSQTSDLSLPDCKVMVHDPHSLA
Sequence of H-2 D^b (P01887 21-119): as the sequence (P01887 21-119) above
Sequence of H-2 D^b (P01899 25-362): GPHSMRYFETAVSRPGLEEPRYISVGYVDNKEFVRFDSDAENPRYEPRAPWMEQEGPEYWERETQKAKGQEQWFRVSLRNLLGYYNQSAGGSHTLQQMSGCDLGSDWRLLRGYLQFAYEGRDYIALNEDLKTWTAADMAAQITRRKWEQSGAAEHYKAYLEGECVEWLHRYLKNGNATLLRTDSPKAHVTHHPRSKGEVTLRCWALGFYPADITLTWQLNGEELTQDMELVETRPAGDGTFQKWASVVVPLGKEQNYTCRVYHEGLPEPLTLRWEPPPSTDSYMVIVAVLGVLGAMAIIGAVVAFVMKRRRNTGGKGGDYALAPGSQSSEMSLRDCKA
Sequence of H-2 D^d (P01900 whole entry, looked up): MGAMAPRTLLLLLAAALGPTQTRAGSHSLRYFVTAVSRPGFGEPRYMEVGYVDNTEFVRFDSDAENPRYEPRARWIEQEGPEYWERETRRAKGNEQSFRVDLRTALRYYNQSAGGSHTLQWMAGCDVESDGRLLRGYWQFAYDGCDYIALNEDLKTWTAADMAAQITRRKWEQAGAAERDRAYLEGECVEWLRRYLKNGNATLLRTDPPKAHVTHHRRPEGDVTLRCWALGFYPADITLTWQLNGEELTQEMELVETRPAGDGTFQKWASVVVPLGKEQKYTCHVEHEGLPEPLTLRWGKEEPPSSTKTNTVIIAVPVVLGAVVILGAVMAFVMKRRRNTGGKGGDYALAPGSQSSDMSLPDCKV

Consider XXYXXXXXX [3064.0060], for which the “Normalized average relative binding affinity (ARB), HLA A*3001” value in [1] is 0.016. Besides, the “Normalized average relative binding affinity (ARB), HLA A*3201” value in test [2] is listed as 1.0. For the same sequence, in [3], the “Normalized average relative binding affinity (ARB), HLA A*6802” value stood at 0.26. For the same sequence, the “Normalized average relative binding affinity (ARB), HLA B*0702” value in test [4] is on record as 0.061. Moreover, the “Normalized average relative binding affinity (ARB), HLA B*0801” value in [5] was 0.13. In [6], the “Normalized average relative binding affinity (ARB), HLA B*1501” value is reported as 0.60. Moreover, in test [7], the “Normalized average relative binding affinity (ARB), HLA B*1503” value turned out to be 0.44. In test [8], the “Normalized average relative binding affinity (ARB), HLA B*2705” value is 0.40. For the same sequence, in test [9], the “Normalized average relative binding affinity (ARB), HLA B*3501” value turned out to be 0.29. The “Normalized average relative binding affinity (ARB), HLA B*5101” value in [10] is listed as 0.38. In addition, the “Normalized average relative binding affinity (ARB), HLA B*5301” value in test [11] worked out at 0.078. Moreover, the “Normalized average relative binding affinity (ARB), HLA B*5401” value in test [12] stood at 0.11. Moreover, the “Normalized average relative binding affinity (ARB), HLA B*5801” value in [13] is on record as 0.34. The “Normalized average relative binding affinity (ARB), HLA B*5802” value in test [14] is 0.72. Also, the “Normalized average relative binding affinity (ARB), H-2 Db” value in test [15] was determined as 0.24. Moreover, in test [16], the “Normalized average relative binding affinity (ARB), H-2 Dd” value is reported as 0.0028. For the same sequence, in test [17], the “Normalized average relative binding affinity (ARB), H-2 Kk” value came out at 0.52. Further, in [18], the “Normalized average relative binding affinity (ARB), HLA A*0201” value came out at 0.88.
Turning to XXXCXXXXX [3064.0062], the “Normalized average relative binding affinity (ARB), HLA A*3001” value in test [1] is 0.31. Moreover, the “Normalized average relative binding affinity (ARB), HLA A*3201” value in test [2] was 0.12. Further, in test [3], the “Normalized average relative binding affinity (ARB), HLA A*6802” value came to 0.13. Also, the “Normalized average relative binding affinity (ARB), HLA B*0702” value in [4] amounted to 0.18. Also, the “Normalized average relative binding affinity (ARB), HLA B*0801” value in test [5] is recorded as 0.41. Also, the “Normalized average relative binding affinity (ARB), HLA B*1501” value in [6] is 0.39. In addition, the “Normalized average relative binding affinity (ARB), HLA B*1503” value in test [7] was found to be 0.34. Besides, the “Normalized average relative binding affinity (ARB), HLA B*2705” value in [8] is on record as 0.25. The “Normalized average relative binding affinity (ARB), HLA B*3501” value in test [9] stood at 0.089. Besides, the “Normalized average relative binding affinity (ARB), HLA B*5101” value in [10] is listed as 0.26. The “Normalized average relative binding affinity (ARB), HLA B*5301” value in [11] amounted to 0.14. For the same sequence, in [12], the “Normalized average relative binding affinity (ARB), HLA B*5401” value is listed as 0.22. Also, in test [13], the “Normalized average relative binding affinity (ARB), HLA B*5801” value amounted to 0.23. The “Normalized average relative binding affinity (ARB), HLA B*5802” value in test [14] is 0.52. In addition, in [15], the “Normalized average relative binding affinity (ARB), H-2 Db” value is 1.0. Also, the “Normalized average relative binding affinity (ARB), H-2 Dd” value in [16] came out at 0.56. Moreover, the “Normalized average relative binding affinity (ARB), H-2 Kk” value in test [17] turned out to be 0.37. Moreover, in test [18], the “Normalized average relative binding affinity (ARB), HLA A*0201” value came to 0.20.
Turning to IXXXXXXXX [3064.0008], the “Normalized average relative binding affinity (ARB), HLA A*3001” value in [1] came to 0.11. Besides, in [2], the “Normalized average relative binding affinity (ARB), HLA A*3201” value was found to be 0.47. The “Normalized average relative binding affinity (ARB), HLA A*6802” value in test [3] is 0.076. In addition, the “Normalized average relative binding affinity (ARB), HLA B*0702” value in test [4] was determined as 0.42. Also, the “Normalized average relative binding affinity (ARB), HLA B*0801” value in test [5] is listed as 0.068. Besides, in [6], the “Normalized average relative binding affinity (ARB), HLA B*1501” value was determined as 1.0. For the same sequence, in test [7], the “Normalized average relative binding affinity (ARB), HLA B*1503” value stood at 0.51. Also, the “Normalized average relative binding affinity (ARB), HLA B*2705” value in test [8] is on record as 0.22. In addition, the “Normalized average relative binding affinity (ARB), HLA B*3501” value in [9] amounted to 0.30. The “Normalized average relative binding affinity (ARB), HLA B*5101” value in test [10] was determined as 0.23. For the same sequence, in test [11], the “Normalized average relative binding affinity (ARB), HLA B*5301” value is listed as 0.15. The “Normalized average relative binding affinity (ARB), HLA B*5401” value in test [12] is given as 0.27. Moreover, the “Normalized average relative binding affinity (ARB), HLA B*5801” value in test [13] is reported as 0.35. For the same sequence, the “Normalized average relative binding affinity (ARB), HLA B*5802” value in test [14] worked out at 0.17. In test [15], the “Normalized average relative binding affinity (ARB), H-2 Db” value came out at 0.13. The “Normalized average relative binding affinity (ARB), H-2 Dd” value in test [16] came out at 0.39. Moreover, the “Normalized average relative binding affinity (ARB), H-2 Kk” value in test [17] worked out at 0.27. Besides, the “Normalized average relative binding affinity (ARB), HLA A*0201” value in test [18] was found to be 0.12.

These data come from article PMC2248166, “Quantitative peptide binding motifs for 19 human and mouse MHC class I molecules derived using positional scanning combinatorial peptide libraries” (Immunome Research, 2008).
